# Key:
# [1] = molecular target: T1, Cholesteryl ester transfer protein (Homo sapiens, UniProt P11597); assay: Inhibition of human recombinant CETP using [3H]-CE/HDL by scintillation proximity assay
# T1 sequence (P11597 whole entry): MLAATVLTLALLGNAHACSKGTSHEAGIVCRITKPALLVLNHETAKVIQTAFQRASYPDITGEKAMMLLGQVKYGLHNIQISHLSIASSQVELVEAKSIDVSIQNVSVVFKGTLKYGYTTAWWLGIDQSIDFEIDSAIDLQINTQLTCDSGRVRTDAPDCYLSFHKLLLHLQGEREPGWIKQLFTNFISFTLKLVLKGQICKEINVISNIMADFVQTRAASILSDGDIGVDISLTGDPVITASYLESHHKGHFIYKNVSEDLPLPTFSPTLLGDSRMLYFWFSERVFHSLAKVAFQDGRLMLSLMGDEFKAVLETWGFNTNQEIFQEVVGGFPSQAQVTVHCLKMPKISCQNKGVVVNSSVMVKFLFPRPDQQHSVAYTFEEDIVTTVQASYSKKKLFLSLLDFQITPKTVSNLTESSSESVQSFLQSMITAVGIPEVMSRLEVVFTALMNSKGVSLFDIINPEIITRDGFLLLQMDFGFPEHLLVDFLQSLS
# [2] = molecular target: T1, Cholesteryl ester transfer protein; assay: Inhibition of CETP in human whole plasma using [3H]-CE/HDL after 10 mins
SMILES,IC50 [1] [µM],IC50 [2] [µM]
COC(=O)c1sc(NC(Cc2ccccc2)(c2cc(F)cc(C(F)(F)F)c2)c2ccc(Cl)cn2)nc1C (stereo not drawn),32,
Fc1cc(C(F)(F)F)cc(C(Cc2ccccc2)(Nc2nc(C(F)(F)F)c(Br)s2)c2ccc(Cl)cn2)c1 (stereo not drawn),0.1,
Fc1cc(C(F)(F)F)cc(C(Cc2ccccc2)(Nc2nc(C(F)(F)F)cs2)c2ccc(Cl)cn2)c1 (stereo not drawn),1.2,
CC(C)(C)c1csc(NC(Cc2ccccc2)(c2cc(F)cc(C(F)(F)F)c2)c2ccc(Cl)cn2)n1 (stereo not drawn),7.5,
CCc1csc(NC(Cc2ccccc2)(c2cc(F)cc(C(F)(F)F)c2)c2ccc(Cl)cn2)n1 (stereo not drawn),0.7,
Cc1cnc(NC(Cc2ccccc2)(c2cc(F)cc(C(F)(F)F)c2)c2ccc(Cl)cn2)s1 (stereo not drawn),1.1,
Cn1nnc(NC(Cc2ccccc2)(c2cc(F)cc(C(F)(F)F)c2)c2ccc(Cl)cn2)n1 (stereo not drawn),11,
Fc1cc(C(F)(F)F)cc(C(Cc2ccccc2)(Nc2nc3ccccc3s2)c2ccc(Cl)cn2)c1 (stereo not drawn),0.5,23
Fc1cc(C(F)(F)F)cc(C(Cc2ccccc2)(Nc2nc3ccccc3o2)c2ccc(Cl)cn2)c1 (stereo not drawn),2,
Fc1cc(C(F)(F)F)cc(C(Cc2ccccc2)(Nc2nc3ccccc3[nH]2)c2ccc(Cl)cn2)c1 (stereo not drawn),0.2,19.6
Fc1cc(C(F)(F)F)cc(C(Cc2ccccc2)(Nc2nnc(-c3ccccc3)[nH]2)c2ccc(Cl)cn2)c1 (stereo not drawn),> 32,
Fc1cc(C(F)(F)F)cc(C(Cc2ccccc2)(Nc2ncc(-c3ccccc3)o2)c2ccc(Cl)cn2)c1 (stereo not drawn),12,
Fc1cc(C(F)(F)F)cc(C(Cc2ccccc2)(Nc2nc3c(s2)CCCC3)c2ccc(Cl)cn2)c1 (racemic),0.2,20.2
Cc1nc(NC(Cc2ccccc2)(c2cc(F)cc(C(F)(F)F)c2)c2ccc(Cl)cn2)sc1C (racemic),0.4,29.5

# Reference: ChEMBL document CHEMBL3112495, “Diphenylpyridylethanamine (DPPE)-based aminoheterocycles as cholesteryl ester transfer protein inhibitors” (Bioorg Med Chem Lett, 2014)
